Experimental data: publication PMC11017252, “Copper(II) Complexes with 2,2′:6′,2″-Terpyridine Derivatives Displaying Dimeric Dichloro−μ–Bridged Crystal Structure: Biological Activities from 2D and 3D Tumor Spheroids to In Vivo Models” (Journal of Medicinal Chemistry, 2024)

How the values were obtained:
[1] = test system: HCT116 (colorectal carcinoma cell line); experiment: MTS cell viability assay, 2D culture, HCT116; format: cell-based, human; details: 48 h of exposure
HCT116DoxR cells [2] = experiment: Cell cycle progression (PI, flow cytometry); details: for cell cycle progression after 12 h / cell cycle progression after 18 h: IC50, thymidine double block; for cell cycle progression after 24 h: complexes at IC50, cisplatin 5 μM
From the text: Therefore, we have assessed the cytostatic potential of complexes 2, 3, 5, and 7, and their ability to interfere with the progression of the cell cycle using the fluorescent marker PI. Since this marker can intercalate with DNA, the measurement of the fluorescence emitted by flow cytometry makes it possible to assess the DNA content at each stage of the cell cycle (G0/G1, S, and G2/M).[67] To ensure that all the cells were in the same phase before their exposure to the complexes, a double block was carried out with thymidine, a DNA synthesis inhibitor.[67]
HCT116DoxR cell line was seeded in 6-well plates in a density of 1×10^5 cells/mL and incubated for
24 h. Afterwards, the culture medium was replaced by medium with IC50 concentrations of different
HCT116DoxR cell line was seeded in 6-well plates in a density of 1×10^5 cells/mL, incubated for 8 h in
a humidified atmosphere at 37 °C and 5% (v/v) CO2, and later synchronized in early S-phase with a 2
mM thymidine solution (Merck, Germany) for a 16 h period. Later, medium with thymidine was
replaced by fresh media and, after 8 h a second block with thymidine was performed in the same
concentrations of Cu(II) complexes. 0.1% (v/v) DMSO was used as the vehicle control while 5 μM
After treatment, cells were incubated for 9, 12,

HCT116DoxR spheroids = experiment: MTS cell viability assay in 3D HCT116DoxR spheroids; format: cell-based, human; details: 6-day-old spheroids, 48 h of exposure
chicken embryos = experiment: Ex-ovo chick chorioallantoic membrane (CAM) assay; format: in vivo; details: IC50, vs DMSO control
[3] = Stability and solubility in biological medium (RPMI) by UV-vis; format: physicochemical; details: colorless RPMI, 50 μM, 37 °C
Description: The stability of complexes 2, 3, 5, and 7 was assessed by UV–vis spectroscopy at 0, 24, and 48 h of incubation at 37 °C.
In Figure S18, it is possible to observe the spectra of all Cu(II) complexes, where high-energy absorption bands correspond to π → π* and n → π* transitions with peaks in the 230–330 and 330–400 nm ranges, respectively, that are associated with the aromatic rings of terpyridines.[39],[49] Analyzing the spectra of complexes 2 and 3, it is possible to detect the existence of 3 bands (maximum ∼240, ∼ 290, and between 320 and 340 nm). […] Complex 7 only has 2 bands of maximum absorbance at 290 nm and between 320 and 340 nm.
Nevertheless, all Cu(II) complex solutions were freshly prepared and added immediately to cells.

EB–ct-DNA adduct = experiment: Ethidium bromide displacement fluorescence assay; format: binding, calf; details: PBS; for apparent binding constant (Kapp): EB displacement, KEB = 1 × 10^7 M^–1; for Stern–Volmer quenching constant KSV: EB–ct-DNA, 0–40 μM complex
fibroblasts = experiment: Cell migration (wound healing) assay; format: cell-based, human; details: 24 h; complexes at IC50, Dox 0.4 μM; vs DMSO
From the text: A wound healing assay was therefore carried out on fibroblasts to study the influence of the Cu(II) complexes on cell migration in vitro. Skin fibroblasts were the model chosen for this assay as they are essential for regenerating damage in this tissue.[85] […]
intrinsic binding constant Kb can be obtained from the ratio of the slope to the intercept of the linear fit of the plot [DNA]/[εa−εf] versus [DNA].
For emission quenching experiments, equimolar solution of ct-DNA and ethidium bromide (EB, Sigma Aldrich) was prepared and allowed to incubate for 2 h in the dark. The tested complexes were titrated into the formed EB–ct-DNA adduct and incubated for additional 30 min. The final concentration of the EB–ct-DNA adduct was 50 μM and the concentration of the complexes varied from 0 to 40 μM. The fluorescence spectra were recorded on FLS-980 spectrofluorometer (Edinburgh Instruments, Livingston, United Kingdom) with excitation wavelength 515 nm and emission wavelength of 620 nm. The apparent binding constant (Kapp) was calculated using the Equations : […]
where I0 and I are the fluorescence intensity in the absence and presence of the complexes; KSV is the Stern-Volmer quenching constant; [Q] is the concentration of the complexes; [Q1/2] is the concentration of the complex causing 50% reduction in the fluorescence intensity; K = 1×107 […]
conditions mentioned before until the presence of a confluent monolayer was detected. A scratch was made on the surface of each well using a sterile 200 μL micropipette tip and the cells were […]
Each plate was then incubated for 24 h in the same conditions mentioned before. […]
The width of each scratch in each image was measured via ImageJ software. […]
The ex-ovo CAM assay was performed to evaluate the copper(II) complexes’ effect on angiogenesis, as already described in literature11,12. […] Newly formed blood vessels were manually counted via ImageJ software. […]
All results were expressed as mean ± SEM of at least two independent biological assays, each obtained by technical duplicates, unless otherwise specified. […]

[4] = test system: A2780 (ovarian carcinoma cell line); experiment: MTS cell viability assay, 2D culture, A2780; format: cell-based, human; details: 48 h of exposure
Description: (§1) The in vitro cytotoxic potential of Cu(II) complexes in tumor and healthy cells was assessed using the MTS assay, a colorimetric method that allows the quantification of viable cells in culture.[46]
Cell culture and maintenance
(§2) The cancer cell lines HCT116 (colorectal carcinoma) and A2780 (ovarian carcinoma) were obtained
(§3) from the American Type Culture Collection (ATCC®, Manassas, VA, USA), as well as the normal
human primary dermal fibroblasts.
(§4) Apart from the A2780 cell line, which was cultured in Roswell Park Memorial Institute (RPMI)
(§5) medium, all cells were cultured in Dulbecco’s modified Eagle medium (DMEM). Both media were
(§6) supplemented with 10% (v/v) fetal bovine serum (FBS) and 1% (v/v) of a Pen/Strep
(§7) (Penicillin/Streptomycin) solution. To maintain the resistant phenotype of the HCT116DoxR cell line,
(§8) the medium was additionally supplemented with 3.6 μM Dox4. All media and supplements were
(§9) purchased from Thermo Fischer Scientific (Waltham, MA, USA).
(§10) Cells were maintained in 25 cm2 T-flasks (T25) in a humidified atmosphere at 37 °C and 5% (v/v) CO
(§11) (SANYO CO2 Incubator, Electric Biomedical Co., Osaka, Japan).
(§12) The effect of Cu(II) complexes on cell viability was studied in HCT116, HCT116DoxR, and A2780
(§13) cancer cell lines and in normal human primary fibroblasts. Cells were seeded in a density of 0.75×105
(§14) cells/mL into 96-well plates and incubated in a humidified atmosphere at 37 °C and 5% (v/v) CO2 for
(§15) 24 h. After incubation, complexes were weighed, immediately solubilized in 100% (v/v) DMSO and
(§16) diluted for the final concentration with cell culture medium. The medium in each well was replaced by
(§17) a solution of fresh medium containing each Cu(II) complex (concentrations ranging from 0.01 μM to
(§18) as negative and positive controls, respectively.
(§19) Following a second incubation period of 48 h in the same conditions, the supernatant of each well was
(§20) replaced by a solution containing MTS reagent (3-(4,5-dimethylthiazol-2-yl)-5-(3-
(§21) carboxymethoxyphenyl)-2-(4-sulfophenyl)-2H-tetrazolium) provided by the CellTiter 96® AQueous
(§22) Non-Radioactive Cell Proliferation Assay Kit (Promega, Madison, WI, EUA) for a 30 minutes
(§23) incubation. The percentage of viable cells was indirectly determined by the spectrophotometric
(§24) quantification at 490 nm in a microplate reader, Tecan Infinite M200 (Tecan, Männedorf, Switzerland)
(§25) of formazan production, resultant from the reduction of the MTS reagent by mitochondrial
(§26) dehydrogenases. Since these enzymes are only active in viable cells, the absorbance value measured is
(§27) directly proportional to the percentage of viable cells in culture5.
By analysing the cell viability as a function of log10(concentration) using Prism 8 (GraphPad
in cell viability) of each complex in the respective cell line at 48 h. The selective index (SI) for each
complex was also determined by dividing the IC50 of human fibroblasts by the respective IC50 in each
cancer cell line (allowing us to understand how much active a complex is in tumor versus normal cell).

BAX and BCL-2 = BAX and BCL-2 protein expression by Western Blot; format: cell-based, human; details: HCT116DoxR, 48 h, IC50; normalized to β-actin
HCT116DoxR cells [5] = experiment: Annexin V-FITC/PI apoptosis assay by flow cytometry; details: 48 h; for cells (%) early apoptosis / cells (%) late apoptosis / cells (%) necrosis / cells (%) viable / percentage of apoptosis (early + late): complexes at IC50, Dox 6 μM, cisplatin 5 μM; for fold increase in apoptotic cells, normalized to DMSO: complexes at IC50, cisplatin 5 μM
Description: To evaluate the cell death mechanism involved in the cytotoxic effect of the selected complexes, a double-staining with Annexin V-FITC and PI was performed. […] The use of Annexin V conjugated with the fluorophore FITC allows the quantification of this interaction and subsequent identification of cells in apoptosis by flow cytometry. Furthermore, PI is a fluorophore that can intercalate with DNA and that can only enter the cell when the membrane is either compromised or ruptured, making it possible to identify cells undergoing late apoptosis and necrosis. Therefore, the double staining makes it possible to distinguish between viable cells (FITC^–; IP^–), those undergoing initial apoptosis (FITC^+; IP^–), those undergoing late apoptosis (FITC^+; IP^+), and those undergoing necrosis (FITC^–; IP^+).[55],[58]
Evaluation of apoptosis induction in HCT116DoxR cell line by flow cytometry The induction of apoptosis in HCT116DoxR cell line was evaluated by flow cytometry, using the
Annexin V-FITC Apoptosis Detection Kit (Thermo Fisher Scientific, Waltham, MA, USA). Cells
were seeded in 6-well plates at a cell density of 1×10^5 cells/mL and incubated for 24 h. Afterwards,
culture medium was replaced by medium with different Cu(II) complexes at their IC50 concentrations.
After 48 h of incubation, cells were washed with PBS 1x, detached from each well with TrypLETM
Express and washed again with PBS 1x. Cells were then resuspended in 1x annexin-binding buffer and
incubated at rt for 15 min with Annexin V-FITC and 100 μg/mL PI.
All samples were analysed by an Attune® Acoustic Focusing Flow Cytometer (Thermo Fischer
Scientific, Waltham, MA, USA) and the results were processed with Attune® Cytometric software

pUC18 plasmid DNA = experiment: pDNA cleavage in vitro (agarose gel electrophoresis); format: biochemical, E. coli; details: for concentration at which the interaction with pDNA reaches saturation / pDNA cleavage mode: 100 ng pUC18, 24 h; for pDNA cleavage mode: 5–100 μM complex; for effect of NaN3 (singlet oxygen scavenger) on pDNA cleavage by the complex: 24 h, 50 μM complex + 50 μM NaN3
[6] = test system: normal human primary dermal fibroblasts; experiment: MTS cell viability assay, normal fibroblasts; format: cell-based; details: 48 h of exposure
Description: as §1
Cell culture and maintenance
as §2, §3
human primary dermal fibroblasts.
as §4, §5, §6, §7, §8, §9, §10, §11, §12, §13, §14, §15, §16, §17, §19, §20, §22, §23, §24, §25

[7] = test system: HCT116DoxR (Dox-resistant colorectal carcinoma cell line); experiment: MTS cell viability assay, 2D culture, HCT116DoxR; details: read-out: IC50 (μM) HCT116DoxR, 48 h of exposure
Description: as §1
In this regard, cell viability was performed for each of the ligands on HCT116DoxR and fibroblasts.
Cell culture and maintenance
as §2, §3
human primary dermal fibroblasts.
as §4, §5, §6, §7, §8, §9, §10, §11, §12, §13, §14, §15, §16, §17, §18, §19, §20, §21, §22, §23, §24, §25, §26, §27

In the case of `F[P-](F)(F)(F)(F)F.F[P-](F)(F)(F)(F)F.[Cl][Cu].[Cl][Cu].c1ccc(-c2cc(-c3ccnc4ccccc34)cc(-c3ccccn3)n2)nc1.c1ccc(-c2cc(-c3ccnc4ccccc34)cc(-c3ccccn3)n2)nc1` [complex 2, [Cu2Cl2(4′-(4-Quinolyl)-terpy)2](PF6)2], the IC50 [1] is reported as 0.31 ± 0.01 µM, the “cell cycle progression after 12 h” value (HCT116DoxR cells [2]) is reported as “delays cell cycle progression in the G2/M phase” and the “cell cycle progression after 24 h” value (HCT116DoxR cells [2]) is reported as “delay the cycle in the G2/M phase”. The IC50 (HCT116DoxR spheroids) was 15.2 ± 0.8 µM, the “formation of new blood vessels after 24 h” value (“formation … after 24 h” for short) (chicken embryos) was “no pro- or antiangiogenic effect” and the “formation of new blood vessels after 48 h” value (“formation … after 48 h” for short) (chicken embryos) was “antiangiogenic effect”. For the same molecule, the “maximum absorbances after 24 or 48 h compared to 0 h (reduction of solubility)” value [3] was “slight decrease”, the “apparent binding constant (Kapp)” value (EB–ct-DNA adduct) was 1.23 × 10^6 M^–1 and the “Stern–Volmer quenching constant KSV” value (EB–ct-DNA adduct) was 2450 M⁻¹. For the same molecule, the “fibroblast migration (% of remission)” value (fibroblasts) was “lower compared to the positive control Dox”, the IC50 [4] was 0.54 ± 0.07 µM and the “expression of BAX compared to the DMSO control” value (BAX and BCL-2) was “decreases”. The “expression of BCL-2 compared to the DMSO control” value (BAX and BCL-2) was “increases”, the “cells (%) early apoptosis” value (HCT116DoxR cells [5]) was 47.3 ± 2.9% and the “cells (%) late apoptosis” value (HCT116DoxR cells [5]) was 22.7 ± 4.6%. For the same molecule, the “cells (%) necrosis” value (HCT116DoxR cells [5]) was 0.3 ± 0.4%, the “cells (%) viable” value (HCT116DoxR cells [5]) was 29.7 ± 6.3% and the “percentage of apoptosis (early + late)” value (HCT116DoxR cells [5]) was 65 to 70%. For the same molecule, the “fold increase in apoptotic cells, normalized to DMSO” value (“fold increase … normalized to DMSO” for short) (HCT116DoxR cells [5]) was ~6.4 fold, the “concentration at which the interaction with pDNA reaches saturation” value (shortened to “concentration at which the interaction”) (pUC18 plasmid DNA) was 25 μM and the pDNA cleavage mode (pUC18 plasmid DNA) was “single strands”. For the same molecule, the “effect of NaN3 (singlet oxygen scavenger) on pDNA cleavage by the complex” value (from here on “effect of NaN3”) (pUC18 plasmid DNA) was “no effect”, the IC50 [6] was 31.36 ± 0.02 µM and the IC50 [7] was 0.25 ± 0.02 µM.

In the case of `F[P-](F)(F)(F)(F)F.F[P-](F)(F)(F)(F)F.[Cl][Cu].[Cl][Cu].c1ccc(-c2cc(-c3ccco3)cc(-c3ccccn3)n2)nc1.c1ccc(-c2cc(-c3ccco3)cc(-c3ccccn3)n2)nc1` [complex 5, [Cu2Cl2(4′-(2-Furanyl)-terpy)2](PF6)2], the IC50 [1] is reported as 0.26 ± 0.03 µM, the “cell cycle progression after 12 h” value (HCT116DoxR cells [2]) is reported as “delays cell cycle progression in the G2/M phase” and the “cell cycle progression after 18 h” value (HCT116DoxR cells [2]) is reported as “delay in cycle progression in the G0/G1 phase”. For the same molecule, the IC50 (HCT116DoxR spheroids) was 14 ± 0.6 µM, the “formation … after 24 h” value (chicken embryos) was “antiangiogenic potential” and the “formation … after 48 h” value (chicken embryos) was “greater decrease in the % of blood vessels formed”. The “maximum absorbances after 24 or 48 h compared to 0 h (reduction of solubility)” value [3] was “slight decrease”, the “apparent binding constant (Kapp)” value (EB–ct-DNA adduct) was 1.84 × 10^6 M^–1 and the “Stern–Volmer quenching constant KSV” value (EB–ct-DNA adduct) was 3640 M⁻¹. The “fibroblast migration (% of remission)” value (fibroblasts) was “lower compared to the positive control Dox”, the IC50 [4] was 0.79 ± 0.05 µM and the “expression of BAX compared to the DMSO control” value (BAX and BCL-2) was “decreases”. The “expression of BCL-2 compared to the DMSO control” value (BAX and BCL-2) was “increases”, the “cells (%) early apoptosis” value (HCT116DoxR cells [5]) was 47.2 ± 10.2% and the “cells (%) late apoptosis” value (HCT116DoxR cells [5]) was 18.7 ± 5.4%. The “cells (%) necrosis” value (HCT116DoxR cells [5]) was 0.2 ± 0.2%, the “cells (%) viable” value (HCT116DoxR cells [5]) was 33.9 ± 5.3% and the “percentage of apoptosis (early + late)” value (HCT116DoxR cells [5]) was 65 to 70%. The “fold increase … normalized to DMSO” value (HCT116DoxR cells [5]) was ~6.4 fold, the “concentration at which the interaction” value (pUC18 plasmid DNA) was 50 μM and the pDNA cleavage mode (pUC18 plasmid DNA) was “single and double strands”. For the same molecule, the “effect of NaN3” value (pUC18 plasmid DNA) was “almost completely reversed”, the IC50 [6] was 12.57 ± 0.02 µM and the IC50 [7] was 0.22 ± 0.01 µM.

With `F[P-](F)(F)(F)(F)F.F[P-](F)(F)(F)(F)F.[Cl][Cu].[Cl][Cu].c1ccc(-c2cc(-c3ccccn3)nc(-c3ccccn3)c2)nc1.c1ccc(-c2cc(-c3ccccn3)nc(-c3ccccn3)c2)nc1` [complex 7, [Cu2Cl2(4′-(2-Pyridynyl)-terpy)2](PF6)2] the IC50 [1] was 0.23 ± 0.01 µM, the “cell cycle progression after 12 h” value (HCT116DoxR cells [2]) was “delays cell cycle progression in the G2/M phase” and the “cell cycle progression after 18 h” value (HCT116DoxR cells [2]) was “delay in cycle progression in the G0/G1 phase”. The “cell cycle progression after 24 h” value (HCT116DoxR cells [2]) was “delay the cycle in the G2/M phase”, the IC50 (HCT116DoxR spheroids) was 30.48 ± 0.19 µM and the “formation … after 24 h” value (chicken embryos) was “no pro- or antiangiogenic effect”. The “formation … after 48 h” value (chicken embryos) was “antiangiogenic effect”, the “apparent binding constant (Kapp)” value (EB–ct-DNA adduct) was 1.16 × 10^6 M^–1 and the “Stern–Volmer quenching constant KSV” value (EB–ct-DNA adduct) was 2320 M⁻¹. The IC50 [4] was 1.13 ± 0.2 µM, the “expression of BAX compared to the DMSO control” value (BAX and BCL-2) was “decreases” and the “expression of BCL-2 compared to the DMSO control” value (BAX and BCL-2) was “increases”. The “cells (%) early apoptosis” value (HCT116DoxR cells [5]) was 37.4 ± 7.4%, the “cells (%) late apoptosis” value (HCT116DoxR cells [5]) was 9.0 ± 2.6% and the “cells (%) necrosis” value (HCT116DoxR cells [5]) was 1.1 ± 0.5%. For the same molecule, the “cells (%) viable” value (HCT116DoxR cells [5]) was 52.5 ± 6.7%, the “percentage of apoptosis (early + late)” value (HCT116DoxR cells [5]) was ~46% and the “fold increase … normalized to DMSO” value (HCT116DoxR cells [5]) was 5 fold. For the same molecule, the “concentration at which the interaction” value (pUC18 plasmid DNA) was 100 μM, the pDNA cleavage mode (pUC18 plasmid DNA) was “single and double strands” and the “effect of NaN3” value (pUC18 plasmid DNA) was “almost completely reversed”. It also gave an IC50 [6] of 16.08 ± 0.05 µM and an IC50 [7] of 0.19 ± 0.01 µM.
